In data set [1] the test system is tested strains (Gram-positive and Gram-negative bacteria). Description: MIC, summary over the tested strains. The format is cell-based. The procedure: MIC was determined using the broth microdilution method in accordance with Clinical and Laboratory Standards Institute guidelines. All compounds were dissolved in dimethyl sulfoxide (DMSO; final DMSO concentration of less than 0.5%) and sterile double-distilled water and then diluted with Mueller-Hinton broth (MHB). Each compound’s stock solution was serially twofold diluted, resulting in concentrations ranging from 0.39 to 100 μg/ml, and thereafter added to sterile 96-well plates. All bacterial cell suspensions were adjusted in MHB to attain a starting inoculum of 1 × 10^6 cells/ml. A total of 100 μl volume of the bacterial suspension was then added to each well. Following a 24-hour incubation at 37°C, the optical density at 600 nm (OD600) was confirmed by measuring absorbance at 600 nm with a BioTek microplate reader. […] All measurements were repeated three times with duplicates each time.

Data set [2] deals with LPS. The data set can be described thus: Fluorescence-based binding assay. As to conditions: compound 1× MIC; LPS 0 to 2.5 μg/ml. The procedure: Changes in the fluorescence emission spectrum or intensity were assessed for compound XT17 with and without the presence of targeted proteins. The fluorescent properties of compound XT17 (excitation wavelength of 350 nm and emission wavelength of 440 nm) were measured using a fluorescent plate reader upon binding to the targets. […] The changes in the emission from a constant concentration of fluorescent compound were monitored after adding increasing concentrations of LTA or LPS. All measurements were repeated three times with duplicates each time.

In data set [3] the test system is S. aureus ATCC 29213. Description: SYTOX Green uptake assay. As to conditions: up to 8× MIC. The class given is cell-based, Staphylococcus aureus. As to the method: The SYTOX Green uptake was measured to explore the inner membrane permeability. The overnight bacteria culture was centrifuged and resuspended in sterile PBS to obtain an OD600 of 0.2. SYTOX Green dye was added to a final concentration of 0.3 μM and incubated for 20 min without being exposed to the light. Fluorescence was measured at excitation and emission wavelengths of 504 and 523 nm, respectively. […] The changes in fluorescence intensity were continuously monitored for 1 hour. All measurements were repeated three times with duplicates each time.

Data set [4] concerns E. coli ATCC 25922. The data set can be described thus: DiSC3(5) membrane depolarization assay. The class given is cell-based, Escherichia coli. As to conditions: 1× to 8× MIC. As to the method:
The DiSC3(5) assay was carried out to investigate the cytoplasmic membrane depolarization. Mid-log phase bacteria culture was centrifuged and resuspended in sterile Hepes buffer [5 mM (pH 7.4)] to adjust the concentration of bacterial cells to obtain OD600 of 0.1. The bacterial suspension was then incubated with 2 μM DiSC3(5) for 1 hour without being exposed to the light. The change in fluorescence intensity was monitored by a BioTek multidetector microplate reader with an excitation wavelength of 622 nm and an emission wavelength of 670 nm. […] All measurements were repeated three times with duplicates each time.

For data set [5], the system named is E. coli DNA. The data set can be described thus: Electrophoretic mobility shift assay. The class given is binding, Escherichia coli. As to conditions: 8× MIC. The procedure:
Isolation of DNA from pure culture of E. coli ATCC 25922 was carried out by the TIANamp bacterial DNA kit (TIANGEN, China) according to the manufacturer’s instructions. […] A loading buffer containing 10 mM TE (pH 7.5), 0.03% bromophenol blue, 0.03% xylene cyanol FF, 60% glycerol, and 60 mM EDTA was added in the sample following incubation for 30 min at 37°C. The electrophoresis was then performed at 100 V for 2 hours in 1× tris-acetate-EDTA buffer solution [0.04 M tris-acetate (pH 8.0) and 0.001 M EDTA] using a 1% (w/v) agarose gel. The bands were visualized using the ChemiDoc imaging system with ultraviolet light. All of the experiments were repeated at least twice with duplicates each time.

Data set [6] relates to A. baumannii R2889. Description: MIC, broth microdilution. The class given is cell-based. As to conditions: Acinetobacter baumannii, 24-hour incubation, MHB. The essentials: (§1)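 Absorbance at 600 nm after 24 h at 37°C served as the growth read-out. Organisms started at 1 × 10^6 cells/ml in MHB against twofold compound steps of 0.39 to 100 μg/ml, under CLSI guidance.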
Background: Dilution methods test growth across graded concentrations, often in twofold steps.

The subject of data set [7] is MRSA N315. The data set can be described thus: MIC, broth microdilution. The format is cell-based. As to conditions: Staphylococcus aureus, 24-hour incubation, MHB, read-out: MIC90 MRSA N315. In outline: as §1
Data set [8] relates to K. pneumonia ATCC 10031. Description: MIC, broth microdilution. The format is cell-based. As to conditions: Klebsiella pneumoniae, ATCC10031; 24-hour incubation, MHB. The essentials: as §1
In data set [9] the test system is K. pneumonia ATCC 14581. The data set can be described thus: MIC, broth microdilution. The class given is cell-based. As to conditions: Klebsiella pneumoniae, ATCC14581; 24-hour incubation, MHB. In outline:
as §1

Data set [10] concerns S. aureus ATCC 29213. The data set can be described thus: MIC, broth microdilution. The class given is cell-based. As to conditions: Staphylococcus aureus, ATCC29213, 24 h, 24-hour incubation, MHB; read-out: MIC90 S. aureus ATCC 29213. In outline:
as §1

Data set [11] concerns P. aeruginosa ATCC 9027. Description: MIC, broth microdilution. As to conditions: Pseudomonas aeruginosa, ATCC9027; 24-hour incubation, MHB. The format is cell-based. In outline: as §1
Data set [12] concerns A. baumannii ATCC 17978. The data set can be described thus: MIC, broth microdilution. The class given is cell-based. As to conditions: Acinetobacter baumannii, ATCC17978; 24-hour incubation, MHB. The essentials:
as §1

In data set [13] the test system is MRSA NCTC 10442. The data set can be described thus: MIC, broth microdilution. The format is cell-based. As to conditions: Staphylococcus aureus; 24-hour incubation, MHB; read-out: MIC90 MRSA NCTC 10442. The essentials:
as §1

≈ marks a conversion by molar mass, not a printed value.

Consider 1 compound from article PMC11881906, “Development of xanthone derivatives as effective broad-spectrum antimicrobials: Disrupting cell wall and inhibiting DNA synthesis” (Science Advances, 2025).

`CC(C)=CCOc1cc(OCCCNC(=N)N)cc2oc3cc(OCCCNC(=N)N)ccc3c(=O)c12` [XT17]: the “fold increase in antibacterial activity” value in [1] (guanidine XT17 versus primary amine XT07) is listed as 8- to 32 fold. For the same compound, in data set [1] (read-out: MICs against the tested strains), the MIC fell in the range of 0.39 to 3.12 µg/mL (≈ 0.764 to 6.12 µM). In addition, the “fluorescence emission of compound upon binding to LPS” value in [2] is reported as “decreased in a concentration-dependent manner”. Further, in data set [3], the “SYTOX Green fluorescence intensity (cytoplasmic membrane permeabilization)” value was “did not show a notable increase”. The “DiSC3(5) fluorescence intensity (membrane depolarization)” value in data set [4] is on record as “no changes in fluorescence intensity”. Further, in data set [5], the “interaction with E. coli DNA (gel mobility shift)” value is “able to directly interact with the E. coli DNA”. Moreover, the MIC90 (in general, an inhibitory concentration at the 90% level, which refers to growth in some studies and to a panel of isolates in others) in [6] was found to be 50 µg/mL (≈ 97.9 µM); in [7] it was 0.39 µg/mL (≈ 0.764 µM); in data set [8], 6.25 µg/mL (≈ 12.2 µM); in data set [9], 12.5 µg/mL (≈ 24.5 µM); in data set [10] it was 0.39 µg/mL (≈ 0.764 µM); in data set [11], 3.12 µg/mL (≈ 6.12 µM). Moreover, the MIC90 in data set [12] turned out to be 25 µg/mL (≈ 49 µM); in data set [13] it was 0.39 µg/mL (≈ 0.764 µM).
